# Test system: HOP-62 multicell spheroids with HUVEC/MSC, viability
# Test: Anticancer human tumor HOP-62 cell line growth inhibition [KRAS2];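 also: viability read after a week of compound exposure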;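 as to viability, T/C: 100% = DMSO vehicle-treated spheroids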
# Conditions: for viability, T/C: stronger effect = lower value
# Summary of the method: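 Combination screen of spheroid viability in tumor-cell co-cultures with endothelial (HUVEC) and mesenchymal stem cell stroma. Each agent was tested in half-log dilutions, topping at clinical Cmax or at 10 microM without a known Cmax.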
# [1] = curve of first compound, second compound 0.1 µM
# [2] = curve of first compound, second compound 0.316 µM
# [3] = curve of first compound, second compound 1 µM
# [4] = curve of first compound, second compound 3.16 µM
# [5] = curve of first compound, second compound 10 µM
# [6] = second compound 0.1 µM, first compound 0.00316 µM
# [7] = second compound 0.1 µM, first compound 0.01 µM
# [8] = second compound 0.1 µM, first compound 0.0316 µM
# [9] = second compound 0.316 µM, first compound 0.00316 µM
# [10] = second compound 0.316 µM, first compound 0.01 µM
# [11] = second compound 0.316 µM, first compound 0.0316 µM
# [12] = second compound 1 µM, first compound 0.00316 µM
# [13] = second compound 1 µM, first compound 0.01 µM
# [14] = second compound 1 µM, first compound 0.0316 µM
# [15] = second compound 3.16 µM, first compound 0.00316 µM
# [16] = second compound 3.16 µM, first compound 0.01 µM
# [17] = second compound 3.16 µM, first compound 0.0316 µM
# [18] = second compound 10 µM, first compound 0.00316 µM
# [19] = second compound 10 µM, first compound 0.01 µM
# [20] = second compound 10 µM, first compound 0.0316 µM
SMILES,IC50 [1] [nM],IC50 [2] [nM],IC50 [3] [nM],IC50 [4] [nM],IC50 [5] [nM],"viability, T/C [6] [%]","viability, T/C [7] [%]","viability, T/C [8] [%]","viability, T/C [9] [%]","viability, T/C [10] [%]","viability, T/C [11] [%]","viability, T/C [12] [%]","viability, T/C [13] [%]","viability, T/C [14] [%]","viability, T/C [15] [%]","viability, T/C [16] [%]","viability, T/C [17] [%]","viability, T/C [18] [%]","viability, T/C [19] [%]","viability, T/C [20] [%]",also measured
CCN1CCN(Cc2ccc(Nc3ncc(F)c(-c4cc(F)c5nc(C)n(C(C)C)c5c4)n3)nc2)CC1 + C=CC(=O)N1CCN(c2nc(=O)n(-c3c(C)ccnc3C(C)C)c3nc(-c4c(O)cccc4F)c(F)cc23)C(C)C1,150,39.5,501,543,< 3.16,58,53.3,49.4,72.5,69.4,50.6,64.9,59.2,51.7,70.4,63.6,57.4,51.9,41.6,42.1,"viability, T/C (second compound 0.1 µM, first compound 0.1 µM): 50.5%; viability, T/C (second compound 0.1 µM, first compound 0.316 µM): 51.3%; viability, T/C (second compound 0.1 µM, first compound 1 µM): 40.5%; viability, T/C (second compound 0.316 µM, first compound 0.1 µM): 48%; viability, T/C (second compound 0.316 µM, first compound 0.316 µM): 49.8%; viability, T/C (second compound 0.316 µM, first compound 1 µM): 44.3%; viability, T/C (second compound 1 µM, first compound 0.1 µM): 60%; viability, T/C (second compound 1 µM, first compound 0.316 µM): 57.1%; viability, T/C (second compound 1 µM, first compound 1 µM): 39.3%; viability, T/C (second compound 3.16 µM, first compound 0.1 µM): 53.5%; viability, T/C (second compound 3.16 µM, first compound 0.316 µM): 63.4%; viability, T/C (second compound 3.16 µM, first compound 1 µM): 36.9%; viability, T/C (second compound 10 µM, first compound 0.1 µM): 39.6%; viability, T/C (second compound 10 µM, first compound 0.316 µM): 38.2%; viability, T/C (second compound 10 µM, first compound 1 µM): 22.7%"
CC(=O)Nc1cccc(-n2c(=O)n(C3CC3)c(=O)c3c(Nc4ccc(I)cc4F)n(C)c(=O)c(C)c32)c1 + COc1cc2nc(C)nc(NC(C)c3cc(N)cc(C(F)(F)F)c3)c2cc1OC1CCOC1,2.5,3.01,2.01,0.494,< 0.1,42.5,25.5,23.8,49.2,24.9,24.5,33.6,24.9,25.2,29.2,21.9,22.7,27.8,25.3,22.1,"viability, T/C (second compound 0.1 µM, first compound 0.0001 µM): 111%; viability, T/C (second compound 0.1 µM, first compound 0.000316 µM): 79%; viability, T/C (second compound 0.1 µM, first compound 0.001 µM): 77.8%; viability, T/C (second compound 0.316 µM, first compound 0.0001 µM): 85.2%; viability, T/C (second compound 0.316 µM, first compound 0.000316 µM): 91.4%; viability, T/C (second compound 0.316 µM, first compound 0.001 µM): 79.9%; viability, T/C (second compound 1 µM, first compound 0.0001 µM): 84.1%; viability, T/C (second compound 1 µM, first compound 0.000316 µM): 75.8%; viability, T/C (second compound 1 µM, first compound 0.001 µM): 75.5%; viability, T/C (second compound 3.16 µM, first compound 0.0001 µM): 58.1%; viability, T/C (second compound 3.16 µM, first compound 0.000316 µM): 50.5%; viability, T/C (second compound 3.16 µM, first compound 0.001 µM): 45.8%; viability, T/C (second compound 10 µM, first compound 0.0001 µM): 39.6%; viability, T/C (second compound 10 µM, first compound 0.000316 µM): 33.7%; viability, T/C (second compound 10 µM, first compound 0.001 µM): 31.4%"
COC(=O)c1ccc2c(C(=Nc3ccc(N(C)C(=O)CN4CCN(C)CC4)cc3)c3ccccc3)c(O)[nH]c2c1,,,,,,,,,,,,,,,,,,,,,"viability, T/C (compound 0.0316 µM): 89.8% [middle of 5 runs]; viability, T/C (compound 0.1 µM): 77.7% [middle of 5 runs]; viability, T/C (compound 0.316 µM): 65.8% [middle of 5 runs]; viability, T/C (compound 1 µM): 48.6% [middle of 5 runs]; viability, T/C (compound 3.16 µM): 40.7% [middle of 5 runs]; viability, T/C (compound 10 µM): 15.8% [middle of 5 runs]; IC50 (curve of compound): 1.09 µM [middle of 5 runs]"
